Data taken from patent publication US9796719B2, “Compounds and pharmaceutical compositions thereof for the treatment of inflammatory disorders” (GALAPAGOS NV, priority 2013, dated 2017).

Columns and labels:
[1] = tested on: LPA 18:2; test: Mouse whole blood (plasma) LPA assay; type: biochemical
Description: (§1) Whole blood is collected from rats or mouse by exsanguinations on sodium heparin tube, then after centrifugation at 3000 rpm for 15 min at 4° C., plasma is stored at −80° C. Compounds are diluted in DMSO in concentration dependent manner then 0.5 μL are dispensed into 96-wells plate placed in ice. Plasma is defrosted on ice then 49.5 μL of plasma are added into the well containing 0.5 μL of compound (1% DMSO final). Plates are covered with a lid in polypropylene and incubated at +37° C., 5% CO2, for 2 h under gentle shaking (except controls which are stored at −20° C.).
(§2) At the end of the incubation, controls are defrosted in ice and transferred in the incubated plates for LC-MS/MS analysis with a non GLP-validated method. For the analysis, plasma proteins from a 10 μL incubated plates are precipitated with an excess of methanol containing the internal standard, LPA 17:0. After centrifugation, the corresponding supernatant is injected on a C18 column. Analytes are eluted out of the column under isocratic conditions. An API5500 QTRAP mass spectrometer (ABSciex™) is used for the detection of LPA 18:2. No calibration curve is prepared for LPA 18:2, however relative quantities are evaluated based on the peak area.

[2] = target: T1, hENPP2 (UniProtKB/SwissProt Sequence ref Q13822) (Homo sapiens (Human), UniProt Q13822); test: FS3 hENPP2 assay (fluorogenic substrate FS-3); type: biochemical; details: hENPP2, FS-3 as substrate
Summary of the method: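 Compound dilutions (1/5 steps, top concentration as added 20 μM) were preincubated 30 min at room temperature with hENPP2 (0.4 or 0.64 μg/mL final) in pH 8.0 Tris buffer containing NaCl, KCl, MgCl2, CaCl2 and 0.1% fatty-acid-free BSA. FS-3 (0.75 μM as added) was then hydrolysed for 30 min at 30 °C, and fluorescence was read at 485/520 nm.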

[3] = target: T1, hENPP2; test: LPC hENPP2 assay (choline release, LPC as substrate); type: biochemical
Summary of the method: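 Choline released from LPC by ENPP2 is quantified after stopping with stop-developer containing 0.6 U/mL choline oxidase, 0.6 U/mL peroxidase, 1.8 mM TOOS, 1.2 mM amino-antipyrine and 20 mM EGTA. Quinoneimine dye read at 555 nm after 30 min at room temperature.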

[4] = tested on: recruited BALF cells; test: LPS induced lung inflammation model (in-LPS test); type: in vivo, mouse; details: versus inLPS Vehicle group
Description: The aim of the assay is to assess the effect of a test compound in a mouse model of acute lung inflammation induced by intranasal instillation of LPS. The impact on the induced cells recruitment in lung is evaluated by measurement of white cells count in broncho-alveolar lavage (BAL) fluid with VetABC device (medical solution gmbh, Rothusstrasse 23, 6331 Hunenberg, Switzerland).
The animals (BALB/c J mice, 18-20 g) are obtained from Harlan Laboratories (Maison-Alfort, France). The animals are maintained on 12 hours light/dark cycle at 22° C. with ad libitum access to tap water and food. Litters are changed twice a week. For each tested compound, a group of 10 subjects is used. In addition to the test compound-treated groups, a vehicle+LPS control group (inLPS), a non-treated group (intact), and a positive control dexamethasone treated group (DEX) are used.
LPS is dissolved in saline solution in order to obtain a final 10 μg/50 μL solution for intranasal instillation, and administered at 50 μL/mouse by intranasal instillation.
The test compounds are prepared in 15 mL PEG200 (9 mL)/H2O (6 mL) to be dosed in a range of 0.3, 1, 3, 10, and 30 mg/kg, and then kept at room temperature in the dark, and are administered once (qd) or twice daily (bid) over 2 days.
Dexamethasone (10 mg/kg, bid, po) is used as a positive control.
On day 1, mice are anaesthetized by isoflurane inhalation. During breathing, LPS solution is instilled intra-nasally and mice are monitored until complete recovery from anaesthesia.
On day 2, mice are anaesthetized by intra-peritoneal injection (under a volume of 10 mL/kg) of anaesthetic solution (18 mL NaCl 0.9%+0.5 mL xylazine (5 mg/kg)+1.5 mL ketamine (75 mg/kg)).
The trachea is canulated with a catheter, and BAL is performed by 2×0.75 mL sterile PBS. The BAL fluid removed is shaked gently at room temperature before centrifugation at 1500 r.p.m. during 10 min at 4° C.
The supernatant is removed and the cell pellet is suspended in 200 μL of PBS, kept on ice and total cell count is processed with VetABC device. Finally, mice are sacrificed under anaesthesia.
For each readout, mean and sem are calculated. A difference statistically significant between intact or treated groups and inLPS Vehicle group is evaluated with Prism® software using a one-way ANOVA (for treatment groups) followed by a Student test. *: p<0.05; **: p<0.01; ***: p<0.001 versus inLPS Vehicle group.

[5] = tested on: LPA 18:2; test: Rat whole blood (plasma) LPA assay; type: biochemical
Description: as §1, §2

[6] = tested on: cells recovered in the BALF; test: Tobacco smoke (TS) model, lungs inflammatory cells recruitment; type: in vivo, mouse; details: TS-exposed mice
Description: The aim of this experiment is to evaluate the efficacy and potency of a test compound administered p.o., once or twice daily on days 6 to 11, vs reference compounds, on pulmonary inflammation induced by 11 days of TS-exposure in female C57BL/6J mice, by assessing the effect of a test compound on the tobacco smoke induced recruitment of inflammatory cells to the lungs.
The test compounds are formulated in PEG200/0.5% methylcellulose (25/75, v/v) and are given at a dose volume of 10 mL/kg. Roflumilast and Dexamethasone are included as positive […] control, respectively. Each treatment group consists of 10 mice.
A first group of mice is subjected to daily TS-exposure for 5 consecutive days and sacrificed on the day 6, 24 h after the final TS-exposure.
A second group is exposed to air for 5 consecutive days (sham exposure) and sacrificed on the day 6, 24 h after the final air-exposure.
Compound and reference-treated groups are subjected to daily TS-exposure for 11 consecutive days and sacrificed on the day 12, 24 h after the final TS-exposure. Mice are dosed p.o. on days 6 to 11, twice daily, 1 h prior to and 6 h after each TS-exposure, with either vehicle, or the test compound at 3, 5, 10 or 30 mg/kg. Another group is dosed p.o. on days 6 to 11, once daily, 1 h prior to each TS-exposure, with either vehicle, or the test compound at a selected dose, for example 10 mg/kg.
An additional group is dosed p.o., once daily, on days 6 to 11, with roflumilast at 5 mg/kg, 1 h prior to each TS-exposure. Dexamethasone is dosed p.o., twice daily, on days 6 to 11, at 0.3 mg/kg, 1 h prior to and 6 h after each TS-exposure.
For each mouse, a BAL is performed using 0.4 mL of PBS. […]
The lungs are dissected out and the left lobes are removed, snap-frozen and stored at −80° C. […] Cell data are presented as individual data points for each animal and the mean value calculated for each group. […]
Percentage inhibitions for the cell data are calculated using the formula below: […]

| Compound | IC50 [1] | IC50 [2] | IC50 [3] | IC50 [5] | Effect significance on recruited BALF cells ([4]; 10 mg/kg bid po) | Effect significance on recruited BALF cells ([4]; 3 mg/kg bid po) | Effect significance on recruited BALF cells ([4]; 30 mg/kg bid po) | number of cells recovered in the BALF (macrophage cells, epithelial cells, neutrophils) ([6]; 3 mg/kg twice daily p.o.) | number of cells recovered in the BALF (macrophage cells, epithelial cells, neutrophils) ([6]; 10 mg/kg twice daily p.o.) |
| --- | --- | --- | --- | --- | --- | --- | --- | --- | --- |
| CCc1nc2cnc(N3CCN(C(=O)CN4CC(O)C4)CC3)cn2c1N(C)c1nc(-c2ccc(F)cc2)c(C#N)s1 [Cpd 12, 2-((2-ethyl-6-(4-(2-(3-hydroxyazetidin-1-yl)acetoyl)piperazin-1-yl)imidazo[1,2-a]pyrazin-3-yl)(methyl)amino)-4-(4-fluorophenyl) thiazole-5-carbonitrile] |  | 0.01 to 25 nM | > 1000 nM | > 1000 nM |  |  |  |  | significantly inhibited |
| CCc1nc2ccc(N3CCN(CC(=O)N4CC[C@@H](O)C4)CC3)nn2c1N(C)c1nc(-c2ccc(F)cc2)cs1 [Cpd 33, (R)-2-(4-(2-ethyl-3-((4-(4-fluorophenyl)thiazol-2-yl)(methyl)amino)imidazo[1,2-b]pyridazin-6-yl)piperazin-1-yl)-1-(3-hydroxypyrrolidin-l-yl)ethanone] |  | 0.01 to 25 nM | 100 to 500 nM |  | ** (**: p<0.01) |  |  |  |  |
| CCc1nc2ccc(C3CCN(CC(=O)N4CC(O)C4)CC3)nn2c1N(C)c1nc(-c2ccc(F)cc2)cs1 [Cpd 201, 2-(4-(2-ethyl-3-((4-(4-fluorophenyl)thiazol-2-yl)(methyl)amino)imidazo[1,2-b]pyridazin-6-yl)piperidin-1-yl)-1-(3-hydroxyazetidin-1-yl)ethanone] |  | 0.01 to 25 nM | 100 to 500 nM |  | ** (**: p<0.01) |  |  |  |  |

The next lines start with results.

| IC50 [1] | IC50 [2] | IC50 [3] | IC50 [5] | Compound | Effect significance on recruited BALF cells ([4]; 10 mg/kg bid po) | Effect significance on recruited BALF cells ([4]; 3 mg/kg bid po) | Effect significance on recruited BALF cells ([4]; 30 mg/kg bid po) | number of cells recovered in the BALF (macrophage cells, epithelial cells, neutrophils) ([6]; 3 mg/kg twice daily p.o.) | number of cells recovered in the BALF (macrophage cells, epithelial cells, neutrophils) ([6]; 10 mg/kg twice daily p.o.) |
| --- | --- | --- | --- | --- | --- | --- | --- | --- | --- |
| > 1000 nM | 0.01 to 25 nM | 100 to 500 nM |  | CCc1nc2cnc(C3=CCN(CC(=O)N4CC(O)C4)CC3)cn2c1N(C)c1nc(-c2ccc(F)cc2)c(C#N)s1 [Cpd 21, 2-((2-ethyl-6-(1-(2-(3-hydroxyazetidin-1-yl)-2-oxoethyl)-1,2,3,6-tetrahydropyridin-4-yl)imidazo[1,2-a]pyrazin-3-yl)(methyl)amino)-4-(4-fluorophenyl) thiazole-5-carbonitrile] |  |  |  |  |  |
|  | 0.01 to 25 nM | 100 to 500 nM |  | CCc1nc2ccc(N3CCN(CC(=O)N4CC[C@H](O)C4)CC3)nn2c1N(C)c1nc(-c2ccc(F)cc2)cs1 [Compound 34, (S)-2-(4-(2-ethyl-3-((4-(4-fluorophenyl)thiazol-2-yl)(methyl)amino)imidazo[1,2-b]pyridazin-6-yl)piperazin-1-yl)-1-(3-hydroxypyrrolidin-1-yl)ethanone] | * (*: p<0.05) |  |  |  |  |
|  | 0.01 to 25 nM | 100 to 500 nM | 100 to 500 nM | CCc1nc2ccc(N3CCN(CC(=O)N(C)C)CC3)nn2c1N(C)c1nc(-c2ccc(F)cc2)cs1 [Cpd 42, 2-(4-(2-ethyl-3-((4-(4-fluorophenyl)thiazol-2-yl)(methyl)amino)imidazo[1,2-b]pyridazin-6-yl)piperazin-1-yl)-N,N-dimethylacetamide] |  | *** (***: p<0.001) | *** (***: p<0.001) |  |  |
|  |  | 0.01 to 100 nM |  | CCc1nc2ccc(N3CCN(CC(=O)N(C)C)CC3)nn2c1N(C)c1nc(-c2ccc(F)cc2)c(C#N)s1 [Compound 44, 2-(4-(3-((5-cyano-4-(4-fluorophenyl)thiazol-2-yl)(methyl)amino)-2-ethylimidazo[1,2-b]pyridazin-6-yl)piperazin-1-yl)-N,N-dimethylacetamide] |  | ** (**: p<0.01) |  |  |  |
|  |  | 100 to 500 nM | > 1000 nM | CCc1nc2cnc(N3CCN(CC(=O)N4CC(O)C4)CC3)cn2c1N(C)c1nc(-c2ccc(F)cc2)c(C#N)s1 [Cpd 2, 2-((2-ethyl-6-(4-(2-(3-hydroxyazetidin-1-yl)-2-oxoethyl)piperazin-1-yl)imidazo[1,2-a]pyrazin-3-yl)(methyl)amino)-4-(4-fluorophenyl) thiazole-5-carbonitrile] |  |  |  | significantly inhibited | significantly inhibited |
